Experiments:
[1] = test system: T-Jurkat cells; assay: XTT cytotoxicity test on T-Jurkat cell line; assay type: cell-based, human; conditions: for IC50: Homo sapiens, T-Jurkat, 48 h, viability, mean ± SD, read-out: Relative IC50 T-Jurkat (XTT); for IS internal selectivity (IC50 PBMCs / IC50 T-Jurkat): ratio between XTT IC50 values for PBMCs and T-Jurkat cell line
Experimental: Table 3 presents the IC50 values obtained from the XTT test on PBMCs and the T-Jurkat cell line, using MPA and MMF as standards. These values indicate the concentration of each compound required to reduce the viability of PBMCs (healthy cells) and T-Jurkat cells (T-cell leukemia) by 50% compared to the control. Cells were treated with compounds for 72 h (PBMCs) or 48 h (T-Jurkat), followed by a colorimetric XTT test. The results are illustrated in ESI Fig. S2 as a viability curve in relation to concentration.
Biological evaluation — PBMC and T-Jurkat cells
The T-Jurkat cell line (Clone E6-1, ATCC TIB-152), derived from a human acute T-cell leukemia, was obtained from the cell bank of the Department of Medical Immunology at the Medical University of Gdańsk. Before experimentation, the cells were thawed and cultured for about 7 days to reach the logarithmic phase of growth. The T-Jurkat cell line was suspended in a complete RPMI medium, which included RPMI-1640, 10% FBS, penicillin (100 U/ml), and streptomycin ([…]).
Human peripheral blood mononuclear cells (PBMCs) were isolated from buffy coats provided by anonymous, healthy volunteers with an average age of 35±4 years during routine transfusion procedure. These samples were received by the Authors from the Regional Centre for Blood Donation and Treatment in Gdańsk (Poland). […]
solely for PBMCs isolation. PBMCs were suspended in a complete X-VIVO medium, consisting of X-VIVO20, 10% heat-inactivated human AB serum, penicillin (100 U/ml), and streptomycin ([…]).
MPA derivatives preparation
To achieve the desired concentrations of the tested compounds, the substances were first dissolved in DMSO to reach a final concentration of 0.01 M. The solutions were then diluted in the appropriate additive-free medium (RPMI-1640 for T-Jurkat cells and X-VIVO20 for PBMCs) to obtain […]
Peripheral blood mononuclear cells were isolated by gradient centrifugation, as described previously. Buffy coats were diluted with phosphate-buffered saline (PBS, pH = 7.4, ThermoFisher Scientific) in a 1:1 ratio, layered at Ficoll-Paque™ PLUS (VWR International), and centrifuged at 800 × g for 20 minutes. The PBMC layer was collected and washed twice with PBS (1st wash: 600 × g for 10 minutes; 2nd wash: 600 × g for 5 minutes). Cell amount and viability were assessed using the Bio-Rad TC20™ automated cell counter combined with trypan blue staining.
XTT dye-based in vitro cytotoxicity test
The cytotoxic effects of mycophenolic acid (MPA) derivatives were assessed using an in vitro XTT-based assay (Roche). PBMCs in complete X-VIVO20 medium and T-Jurkat cells in complete RPMI-1640 medium were seeded into 96-well plates at a concentration of 5∙10^5 cells/50 µl per well. 50 µl of tested compounds were added to the experimental wells to achieve final concentrations of 50, 25, 10, 5, 1, 0.1, and 0.01 µM. The background control consisted of the medium without cells, while untreated cells served as the positive control. After incubating for 48 hours for T-Jurkat cells and 96 hours for PBMCs in a humidified atmosphere with 5% CO2 at 37°C, 50 µl of freshly prepared XTT reagent was added to all wells according to the manufacturer's instructions. The plates were then incubated for an additional 24 hours under the same conditions. The conversion of the water-soluble yellow XTT tetrazolium salt to orange formazan was quantified by measuring the optical density (OD) at 450 nm using an Agilent BioTek Epoch Microplate Spectrophotometer (Agilent Technologies), with a reference wavelength of 690 nm. The results were expressed as IC50 values for compounds that […]
inhibited cell viability by more than 50%. […]
PBMCs were suspended in a 15 mL centrifuge tube at a concentration of 10-30 × 10⁶ cells in 1 mL of PBS, then, 2 μL of 1 mM VPD 450 dye solution was added, incubated for 15 min at 37°C, washed with a 9-fold volume of warm PBS and centrifuged at 400 x g for 5 min. Then, the cells were suspended […]

[2] = test system: T-Jurkat cells; assay: VPD450 proliferation test (flow cytometry) on T-Jurkat cells; assay type: cell-based, human; conditions: for EC50: Homo sapiens, T-Jurkat, 48 h, mean ± SD; for SI selectivity index T-Jurkat (IC50/EC50): ratio between IC50 (XTT) and EC50 (VPD450) on T-Jurkat cell line; for IS internal selectivity (EC50 PBMCs / EC50 T-Jurkat): ratio between VPD450 EC50 values for PBMCs and T-Jurkat cell line
Experimental: These values indicate the concentration of any compound at which proliferation of PBMCs (healthy cells), and T-Jurkat cells (T-cell leukemia), is inhibited by 50% compared to the control. Cells were treated with the compounds for 72 h (PBMCs) or 48 h (T-Jurkat), followed by a […] VPD450 test. The results are presented in ESI Fig. S3 as proliferation curves concerning concentration.
ESI Figure 3. Concentration-dependent change in proliferation under the treatment of ester derivatives of MPA. (A) VPD450-labelled PBMCs were cultured in the presence of different concentrations (100; 50; 25; 10; 1; 0.1, and 0.01 μM) of MPA, MMF, and ester derivatives, and stimulated with magnetic beads coated with anti-CD3 and anti-CD28 antibodies for 72 hours. (B) VPD450-labelled T-Jurkat cells were cultured in the presence of different concentrations (100; 10; 1; 0.1 and 0.01 μM) of MPA and ester derivatives for 48 hours. The plots were separated based on the type of ester derivative (P or MP). Cell proliferation was analyzed using flow cytometry. The results are expressed […]
(1 picture or pasted object on this page, not shown here) […]
inhibited cell viability by more than 50%. Each experiment was conducted in triplicate, and the final […]
VPD450 dye-based in vitro cell proliferation test
PBMCs and T-Jurkat cells were washed twice with warm PBS (37°C), re-suspended in fresh PBS at a final concentration of 10-30∙10^6 cells/ml, and labelled with 1 µl of VPD450 (BD Biosciences) at 37°C for 15 minutes, with vortexing every 5 minutes to ensure uniform staining. Subsequently, cells were washed with PBS, then with the complete medium (X-VIVO20 for PBMCs and RPMI-1640 for T-Jurkat cells), next re-suspended in fresh complete medium and seeded into 96-well plates at a concentration of 1∙10^6 cells per well. PBMCs were additionally stimulated with magnetic beads coated with anti-CD3 and anti-CD28 antibodies (Invitrogen) at a 2:1 cell-to-bead ratio. To the experimental wells, 100 µl of the MPA derivatives were added to achieve final concentrations of 50, 25, 10, 5, 1, 0.1, and 0.01 µM. In parallel, control wells containing stained but unstimulated cells and stained, stimulated cells were prepared at the same concentration. Cell proliferation was analyzed using an LSRFortessa flow cytometer (BD Biosciences) and Kaluza C Flow Cytometry Analysis Software (Beckman Coulter). […]
Statistical analysis was conducted using GraphPad Prism 9 (GraphPad Software Inc).
Differences between MMF, MPA and its new derivatives were assessed using a two-tailed unpaired Student’s t-test, with statistical significance defined as p < 0.05. EC50 and IC50 values were determined by fitting data to a four-parameter non-linear regression model in GraphPad Prism 9. Statistical significance was evaluated using the t-test.

SMILES	IC50 [1] [nM]	IS internal selectivity (IC50 PBMCs / IC50 T-Jurkat) [1]	EC50 [2] [nM]	SI selectivity index T-Jurkat (IC50/EC50) [2]	IS internal selectivity (EC50 PBMCs / EC50 T-Jurkat) [2]
COc1cc(C=O)ccc1OC(=O)CC/C(C)=C/Cc1c(O)c2c(c(C)c1OC)COC2=O [MP4]	5330 ± 5	4.406	7509 ± 36	0.710	0.386
COc1c(C)c2c(c(O)c1C/C=C(\C)CCC(=O)Oc1ccc3c(c1)OCO3)C(=O)OC2 [P1]	1073 ± 2	116.938	2010 ± 42	0.533	0.573
COc1cc(C=O)cc(OC)c1OC(=O)CC/C(C)=C/Cc1c(O)c2c(c(C)c1OC)COC2=O [MP3]	4443 ± 7	2.383	4458 ± 40	0.997	3.083
COc1c(C)c2c(c(O)c1C/C=C(\C)CCC(=O)OCCN1CCOCC1)C(=O)OC2 [MMF, mycophenolate mofetil, reference compound]	740 ± 34	22.456	609 ± 30	1.216	1.704
COc1cccc(OC)c1OC(=O)CC/C(C)=C/Cc1c(O)c2c(c(C)c1OC)COC2=O [MP2]	1748 ± 6	12.883	2640 ± 35	0.662	2.042
COC(=O)/C=C/c1ccc(OC(=O)CC/C(C)=C/Cc2c(O)c3c(c(C)c2OC)COC3=O)c(OC)c1 [MP7]	1406 ± 4	21.645	4923 ± 34	0.286	1.571
C/C=C/c1ccc(OC(=O)CC/C(C)=C/Cc2c(O)c3c(c(C)c2OC)COC3=O)c(OC)c1 [MP9]	1964 ± 2	10.770	1840 ± 43	1.070	1.283
COC(=O)/C=C/c1ccccc1OC(=O)CC/C(C)=C/Cc1c(O)c2c(c(C)c1OC)COC2=O [P4]	1658 ± 3	15.613	3530 ± 45	0.470	1.380
COc1ccccc1OC(=O)CC/C(C)=C/Cc1c(O)c2c(c(C)c1OC)COC2=O [MP1]	982 ± 5	15.051	780 ± 34	1.259	1.418
COc1c(C)c2c(c(O)c1C/C=C(\C)CCC(=O)Oc1ccc(C=O)cc1)C(=O)OC2 [P5]	1582 ± 3	6.288	2357 ± 23	0.671	0.703
COc1c(C)c2c(c(O)c1C/C=C(\C)CCC(=O)Oc1ccc(CCC(C)=O)cc1)C(=O)OC2 [P7]	2410 ± 2	20.869	2230 ± 44	1.083	0.470
COc1c(C)c2c(c(O)c1C/C=C(\C)CCC(=O)Oc1cc(C)ccc1C(C)C)C(=O)OC2 [P2]	2473 ± 4	6.611	4477 ± 33	0.552	0.317
COc1c(C)c2c(c(O)c1C/C=C(\C)CCC(=O)O)C(=O)OC2 [MPA, Mycophenolic acid]	527 ± 40	35.558	924 ± 34	0.570	1.249
C=CCc1ccc(OC(=O)CC/C(C)=C/Cc2c(O)c3c(c(C)c2OC)COC3=O)c(OC)c1 [MP8]	1705 ± 2	10.429	1740 ± 23	0.983	0.665

From article PMC12271471, “Direct synthesis of mycophenolic acid aryl esters with antioxidant and antiproliferative properties” (Scientific Reports, 2025)
